In patent publication US10179800B2, “Crystalline forms of S-[4-(3-fluoro-3-methylbutyryloxy)but-2-ynyl] 6-α,9-α-difluoro-17-α-(furan-2-yl)carbonyloxy-11-β-hydroxy-16-α-methyl-3-oxoandrosta-1,4-diene-17-β-carbothioate” (Sun Pharma Advanced Research Company Limited, priority 2015, dated 2019):

Assay: Stability of the solid form upon storage
Type: physicochemical
Settings: storage at ambient conditions

In the case of `C[C@@H]1CC2C3C[C@H](F)C4=CC(=O)C=C[C@]4(C)[C@@]3(F)[C@@H](O)C[C@]2(C)[C@@]1(OC(=O)c1ccco1)C(=O)SCC#CCOC(=O)CC(C)(C)F` (stereo partly drawn) [amorphous form, S-[4-(3-fluoro-3-methylbutyryloxy)but-2-ynyl]6α,9α-difluoro-17α-(furan-2-yl)carbonyloxy-11β-hydroxy-16α-methyl-3-oxoandrosta-1,4-diene-17β-carbothioate], the stability upon storage was “unstable upon storage even at ambient conditions”.
